According to patent US12227495B2, “Herbicidal compounds” (SYNGENTA CROP PROTECTION AG, priority 2018, dated 2025):

How the values were obtained:
Assay type in all cases: in vivo
Setaria faberi (SETFA) [1] = assay: Pre-emergence herbicide test, glasshouse, percentage damage; conditions: rate 1000 g/ha, evaluated after 13 days
Procedure, shortened: (§1)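 Pot-grown plants were sprayed at 500 g/ha unless otherwise stated, in acetone/water (50:50) with 0.5% Tween 20. Pre-emergence spraying was 1 day after sowing and post-emergence after 8 days, in a glasshouse at 24/16° C, 14 h light, 65% humidity. Percentage damage was scored 13 days later on a 1–5 scale (5=81-100%).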

[2] = test system: Ipomoea hederacea (IPOHE); assay: as above; conditions: rate 1000 g/ha, evaluated after 13 days
Procedure, shortened: as §1

Lolium perenne (LOLPE) [3] = assay: as above; conditions: rate 1000 g/ha, evaluated after 13 days
Procedure, shortened: as §1

[4] = test system: Amaranthus retoflexus (AMARE); assay: as above; conditions: rate 1000 g/ha, evaluated after 13 days
Procedure, shortened: as §1

Solanum nigrum (SOLNI) [5] = assay: as above; conditions: rate 1000 g/ha, evaluated after 13 days
Procedure, shortened: as §1

[6] = test system: Echinochloa crus-galli (ECHCG); assay: as above; conditions: rate 1000 g/ha, evaluated after 13 days
Procedure, shortened: as §1

Setaria faberi (SETFA) [7] = assay: Post-emergence herbicide test, glasshouse, percentage damage; conditions: 1000 g/ha, evaluated after 13 days
Procedure, shortened: as §1

[8] = test system: Ipomoea hederacea (IPOHE); assay: as above; conditions: 1000 g/ha, evaluated after 13 days
Procedure, shortened: as §1

Lolium perenne (LOLPE) [9] = assay: as above; conditions: 1000 g/ha, evaluated after 13 days
Procedure, shortened: as §1

[10] = test system: Amaranthus retoflexus (AMARE); assay: as above; conditions: 1000 g/ha, evaluated after 13 days
Procedure, shortened: as §1

Solanum nigrum (SOLNI) [11] = assay: as above; conditions: 1000 g/ha, evaluated after 13 days
Procedure, shortened: as §1

[12] = test system: Echinochloa crus-galli (ECHCG); assay: as above; conditions: 1000 g/ha, evaluated after 13 days
Procedure, shortened: as §1

Structure (SMILES) | Pre-emergence Test SETFA percentage damage (five point scale) (Setaria faberi (SETFA) [1]) | Pre-emergence Test IPOHE percentage damage (five point scale) [2] | Pre-emergence Test LOLPE percentage damage (five point scale) (Lolium perenne (LOLPE) [3]) | Pre-emergence Test AMARE percentage damage (five point scale) [4] | Pre-emergence Test SOLNI percentage damage (five point scale) (Solanum nigrum (SOLNI) [5]) | Pre-emergence Test ECHCG percentage damage (five point scale) [6] | percentage damage caused to the plant, SETFA (Setaria faberi (SETFA) [7]) | percentage damage caused to the plant, IPOHE [8] | percentage damage caused to the plant, LOLPE (Lolium perenne (LOLPE) [9]) | percentage damage caused to the plant, AMARE [10] | percentage damage caused to the plant, SOLNI (Solanum nigrum (SOLNI) [11]) | percentage damage caused to the plant, ECHCG [12]
Cc1cccc(-c2cc(C(F)F)no2)c1Oc1ncc(Cl)cc1F [Compound A94] | 2 (2=21-40%) | 1 (1=0-20%) | 2 (2=21-40%) | 4 (4=61-80%) | 2 (2=21-40%) | 3 (3=41-60%) | 3 (3=41-60%) | 1 (1=0-20%) | 2 (2=21-40%) | 4 (4=61-80%) | 4 (4=61-80%) | 2 (2=21-40%)
Fc1cc(Cl)cnc1Oc1c(Cl)cccc1-c1cc(C(F)F)no1 [Compound A95] | 3 (3=41-60%) | 1 (1=0-20%) | 1 (1=0-20%) | 4 (4=61-80%) | 1 (1=0-20%) | 4 (4=61-80%) | 4 (4=61-80%) | 1 (1=0-20%) | 3 (3=41-60%) | 4 (4=61-80%) | 4 (4=61-80%) | 3 (3=41-60%)
Fc1cc(Cl)cnc1Oc1ccccc1-c1cc(C(F)(F)F)cs1 [Compound A97, 5-chloro-3-fluoro-2-[2-[4-(trifluoromethyl)-2-thienyl]phenoxy]pyridine] | 4 (4=61-80%) | 2 (2=21-40%) | 2 (2=21-40%) | 4 (4=61-80%) | 2 (2=21-40%) | 3 (3=41-60%) | 5 (5=81-100%) | 4 (4=61-80%) | 3 (3=41-60%) | 5 (5=81-100%) | 4 (4=61-80%) | 4 (4=61-80%)
Fc1cccc(Oc2cccc(Br)c2-c2cc(C(F)F)no2)n1 [Compound A98] | 5 (5=81-100%) | 1 (1=0-20%) | 3 (3=41-60%) | 4 (4=61-80%) | 3 (3=41-60%) | 5 (5=81-100%) | 5 (5=81-100%) | 3 (3=41-60%) | 3 (3=41-60%) | 4 (4=61-80%) | 4 (4=61-80%) | 4 (4=61-80%)
FC(F)c1cc(-c2c(Br)cccc2Oc2cc(C(F)(F)F)ccn2)on1 [Compound A99] | 4 (4=61-80%) | 1 (1=0-20%) | 3 (3=41-60%) | 5 (5=81-100%) | 1 (1=0-20%) | 4 (4=61-80%) | 4 (4=61-80%) | 2 (2=21-40%) | 3 (3=41-60%) | 5 (5=81-100%) | 4 (4=61-80%) | 4 (4=61-80%)
Fc1cnc(Oc2cccc(Br)c2-c2cc(C(F)F)no2)c(F)c1 [Compound A101] | 5 (5=81-100%) | 5 (5=81-100%) | 5 (5=81-100%) | 5 (5=81-100%) | 4 (4=61-80%) | 5 (5=81-100%) | 5 (5=81-100%) | 5 (5=81-100%) | 4 (4=61-80%) | 5 (5=81-100%) | 5 (5=81-100%) | 4 (4=61-80%)
